Measurements published in article PMC5681660, “Reduced hepatitis B and D viral entry using clinically applied drugs as novel inhibitors of the bile acid transporter NTCP” (Scientific Reports, 2017).
Counter-ions that a name gives are not always drawn. Like-named read-outs stand apart in the source and are kept apart here.

Target: T1, human NTCP (Homo sapiens, UniProt Q14973)
T1 sequence (Q14973 1-349): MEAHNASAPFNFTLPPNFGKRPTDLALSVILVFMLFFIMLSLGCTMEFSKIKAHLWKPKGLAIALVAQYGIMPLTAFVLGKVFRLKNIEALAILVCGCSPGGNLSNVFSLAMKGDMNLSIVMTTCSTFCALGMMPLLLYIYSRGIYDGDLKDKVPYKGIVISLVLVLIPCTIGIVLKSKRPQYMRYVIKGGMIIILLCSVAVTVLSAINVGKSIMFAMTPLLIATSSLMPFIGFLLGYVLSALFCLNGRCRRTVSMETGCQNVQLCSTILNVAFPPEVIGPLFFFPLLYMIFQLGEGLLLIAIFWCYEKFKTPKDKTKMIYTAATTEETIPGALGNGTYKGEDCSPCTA
Assay: Screening taurocholate uptake assay (96-well, [14C]taurocholate, 10 µM drug)

[1] = combined ranking of functional and binding screening assays
[2] = screening taurocholate uptake, 10 µM drug
[3] = ranking over the functional and the binding screening assay
[4] = screening taurocholate uptake, 10 µM drug, B-score

| SMILES | Ranking score [1] | B-score functional assay [2] | Ranking score [3] | B-score functional assay [4] | B-score functional assay |
| --- | --- | --- | --- | --- | --- |
| CCCC(=O)Nc1ncnc2c1ncn2[C@@H]1O[C@@H]2COP(=O)([O-])O[C@H]2[C@H]1OC(=O)CCC.[Na+] [Bucladesine sodium salt] | 477.022 | -0.403 |  |  |  |
| CCCC1O[C@@H]2C[C@H]3[C@@H]4CCC5=CC(=O)C=C[C@]5(C)[C@H]4[C@@H](O)C[C@]3(C)[C@]2(C(=O)CO)O1 (stereo partly drawn) [Budesonide] | 628.462 | -0.64 |  |  |  |
| CCCCOc1ccc(CC(=O)NO)cc1 [Bufexamac] |  | -0.678 | 265.556 |  |  |
| CCCCN1CCCCC1C(=O)Nc1c(C)cccc1C (stereo not drawn) [Bupivacaine hydrochloride] |  | -1.136 | 231.991 |  |  |
| CC(NC(C)(C)C)C(=O)c1cccc(Cl)c1 (stereo not drawn) [Bupropion hydrochloride] | 557.749 | 0.583 |  |  |  |
| O=C1CC2(CCCC2)CC(=O)N1CCCCN1CCN(c2ncccn2)CC1 [Buspirone hydrochloride] |  | -0.772 | 215.998 |  |  |
| CS(=O)(=O)OCCCCOS(C)(=O)=O [Busulfan] |  | -1.026 | 269.796 |  |  |
| Clc1ccc(CCC(Cn2ccnc2)Sc2c(Cl)cccc2Cl)cc1 (stereo not drawn) [Butoconazole nitrate] |  | -3.692 | 196.25 |  |  |
| C=C1/C(=C\C=C2/CCC[C@]3(C)[C@@H]([C@H](C)/C=C/[C@@H](O)C4CC4)CC[C@@H]23)C[C@@H](O)C[C@@H]1O [Calcipotriene] |  | -4.364 | 164.682 |  |  |
| C[N+](C)(C)CCOC(N)=O [Carbachol] | 511.9 | 0.619 |  |  |  |
| CC1(C)[C@@H](OC(=O)CCC(=O)O)CC[C@]2(C)[C@H]3C(=O)C=C4[C@@H]5C[C@@](C)(C(=O)O)CC[C@]5(C)CC[C@@]4(C)[C@]3(C)CC[C@@H]12 [Carbenoxolone disodium salt] |  | -5.734 | 79.4984 |  |  |
| C[C@@](Cc1ccc(O)c(O)c1)(NN)C(=O)O [Carbidopa] | 597.675 | 0.686 |  |  |  |
| CCOC(=O)n1ccn(C)c1=S [Carbimazole] |  | -0.455 | 161.053 |  |  |
| CC(C)(C)NCC(O)COc1cccc2c1CCC(=O)N2 (stereo not drawn) [Carteolol hydrochloride] | 570.247 | -0.486 |  |  |  |
| C=CC1=C(C(=O)O)N2C(=O)[C@@H](NC(=O)/C(=N\O)c3csc(N)n3)[C@H]2SC1 [Cefdinir] | 598.124 | -0.454 |  |  |  |
| CO/N=C(\C(=O)N[C@@H]1C(=O)N2C(C(=O)O)=C(C[N+]3(C)CCCC3)CS[C@H]12)c1csc(N)n1 [Cefepime hydrochloride] | 1157.98 |  |  | 1.484 |  |
| C=CC1=C(C(=O)O)N2C(=O)[C@@H](NC(=O)/C(=N\OCC(=O)O)c3csc(N)n3)[C@H]2SC1 [Cefixime] |  | -2.268 | 185.952 |  |  |
| CO[C@@]1(NC(=O)CSCC#N)C(=O)N2C(C(=O)O)=C(CSc3nnnn3C)CS[C@@H]21 [Cefmetazole sodium salt] |  | -1.174 | 266.713 |  |  |
| NCc1ccccc1CC(=O)N[C@@H]1C(=O)N2C(C(=O)O)=C(CSc3nnnn3CC(=O)O)CS[C@H]12 [Ceforanide] | 1237.77 |  |  | 3.778 |  |
| CN(C)CCn1nnnc1SCC1=C(C(=O)O)N2C(=O)[C@@H](NC(=O)Cc3csc(N)n3)[C@H]2SC1 [Cefotiam hydrochloride] |  | 1.511 | 197.995 |  |  |
| Cc1cc(O)c(C(=O)N[C@@H](C(=O)N[C@@H]2C(=O)N3C(C(=O)O)=C(CSc4nnnn4C)CS[C@H]23)c2ccc(O)cc2)cn1 [Cefpiramide] |  | -1.403 | 261.897 |  |  |
| COCC1=C(C(=O)OC(C)OC(=O)OC(C)C)N2C(=O)[C@@H](NC(=O)/C(=N\OC)c3csc(N)n3)[C@H]2SC1 (stereo partly drawn) [Cefpodoxime proxetil] | 640.176 | -0.201 |  |  |  |
| CC(C)(O/N=C(\C(=O)N[C@@H]1C(=O)N2C(C(=O)[O-])=C(C[n+]3ccccc3)CS[C@H]12)c1csc(N)n1)C(=O)O [Ceftazidime pentahydrate] | 560.357 | -1.028 |  |  |  |
| CO/N=C(\C(=O)N[C@@H]1C(=O)N2C(C(=O)OC(C)OC(C)=O)=C(COC(N)=O)CS[C@H]12)c1ccco1 (stereo partly drawn) [Cefuroxime axetil] | 621.898 | -0.317 |  |  |  |
| C[C@H](CCC(=O)O)[C@H]1CC[C@H]2[C@@H]3[C@H](O)C[C@@H]4C[C@H](O)CC[C@]4(C)[C@H]3CC[C@]12C [Chenodiol] |  | -1.277 | 40.9878 |  |  |
| O=C(O)CCCc1ccc(N(CCCl)CCCl)cc1 [Chlorambucil] |  | -1.869 | 169.183 |  |  |
| O=C(N[C@H](CO)[C@H](O)c1ccc([N+](=O)[O-])cc1)C(Cl)Cl [Chloramphenicol] | 594.757 | 2.451 |  |  |  |

| SMILES | Ranking score [1] | B-score functional assay [2] | Ranking score [3] | B-score functional assay [4] | B-score functional assay |
| --- | --- | --- | --- | --- | --- |
| CN1CCN(C(c2ccccc2)c2ccc(Cl)cc2)CC1 (stereo not drawn) [Chlorcyclizine hydrochloride] | 1232.56 |  |  | 4.014 |  |
| [H]/N=C(\N/C(=N/[H])NCCCCCCNC(=N)NC(=N)Nc1ccc(Cl)cc1)Nc1ccc(Cl)cc1 [Chlorhexidine] |  | 0.062 | 185.515 |  |  |
| CC(=O)O[C@]1(C(C)=O)CC[C@H]2[C@@H]3C=C(Cl)C4=CC(=O)CC[C@]4(C)[C@H]3CC[C@@]21C [Chlormadinone acetate] |  | -1.751 | 87.43 |  |  |
| Oc1c(Cl)cc(Cl)c2cccnc12 [Chloroxine] | 538.476 | -0.339 |  |  |  |
| NC(=O)OCC(O)COc1ccc(Cl)cc1 (stereo not drawn) [Chlorphensin carbamate] | 1211.24 |  |  | 3.271 |  |
| CN(C)CCCN1c2ccccc2Sc2ccc(Cl)cc21 [Chlorpromazine hydrochloride] |  | 1.542 | 173.367 |  |  |
| NS(=O)(=O)c1cc(C2(O)NC(=O)c3ccccc32)ccc1Cl (stereo not drawn) [Chlorthalidone] | 532.184 | -1.121 |  |  |  |
| COCCOC(=O)C1=C(C)NC(C)=C(C(=O)OC/C=C/c2ccccc2)C1c1cccc([N+](=O)[O-])c1 (stereo not drawn) [Cilnidipine] | 582.255 | 0.219 |  |  |  |
| CN/C(=N/CCSCc1nc[nH]c1C)NC#N [Cimetidine] |  | -0.365 | 269.583 |  |  |
| CC(C)(Oc1ccc(C2CC2(Cl)Cl)cc1)C(=O)O (stereo not drawn) [Ciprofibrate] | 539.316 | 0.025 |  |  |  |
| COc1cc(N)c(Cl)cc1C(=O)NC1CCN(CCCOc2ccc(F)cc2)CC1OC (stereo not drawn) [Cisapride] |  | -0.847 | 235.1 |  |  |
| CN(C)CCCC1(c2ccc(F)cc2)OCc2cc(C#N)ccc21 (stereo not drawn) [Citalopram Hydrobromide] |  | -1.909 | 277.496 |  |  |
| Nc1nc(Cl)nc2c1ncn2[C@H]1C[C@H](O)[C@@H](CO)O1 [Cladribine] |  | -0.011 | 277.042 |  |  |
| CC(C)(C)NCC(O)c1cc(Cl)c(N)c(Cl)c1 (stereo not drawn) [Clenbuterol hydrochloride] | 497.397 | -0.705 |  |  |  |
| Oc1c(I)cc(Cl)c2cccnc12 [Clioquinol] | 627.53 | 0.225 |  |  |  |
| CCC(=O)O[C@]1(C(=O)CCl)[C@@H](C)C[C@H]2[C@@H]3CCC4=CC(=O)C=C[C@]4(C)[C@@]3(F)[C@@H](O)C[C@@]21C [Clobetasol propionate] |  | -0.819 | 265.371 |  |  |
| CC(CN(C)C)C(C)(O)Cc1ccc(Cl)cc1.Cl (stereo not drawn) [Clobutinol hydrochloride] | 492.244 | -0.006 |  |  |  |
| C[C@@H]1C[C@H]2[C@@H]3C[C@H](F)C4=CC(=O)C=C[C@]4(C)[C@@]3(Cl)[C@@H](O)C[C@]2(C)[C@H]1C(=O)COC(=O)C(C)(C)C [Clocortolone pivalate] | 1150.27 |  |  | 4.298 |  |
| CCCCCCC[N+](CC)(CC)CCCCc1ccc(Cl)cc1.Cc1ccc(S(=O)(=O)[O-])cc1 [Clofilium tosylate] |  | -2.506 | 143.363 |  |  |
| Clc1cccc(Cl)c1N=C1NCCN1 [Clonidine hydrochloride] | 587.566 | 0.689 |  |  |  |
| C[C@@H]1CCC[C@H](C)N1NC(=O)c1ccc(Cl)c(S(N)(=O)=O)c1 [Clopamide] |  | -0.164 | 216.069 |  |  |
| C#CCN(C)CCCOc1ccc(Cl)cc1Cl [Clorgyline hydrochloride] | 645.563 | 0.335 |  |  |  |
| Cc1cc(C(C#N)c2ccc(Cl)cc2)c(Cl)cc1NC(=O)c1cc(I)cc(I)c1O (stereo not drawn) [Closantel] |  | -0.508 | 203.568 |  |  |
| Clc1ccccc1C(c1ccccc1)(c1ccccc1)n1ccnc1 [Clotrimazole] |  | -1.203 | 204.208 |  |  |
| Cc1onc(-c2ccccc2Cl)c1C(=O)N[C@@H]1C(=O)N2[C@@H]1SC(C)(C)[C@@H]2C(=O)[O-].[Na+] [Cloxacillin sodium salt] |  | 0.027 | 243.228 |  |  |
| COc1cc2c(c(OC)c1OC)-c1ccc(OC)c(=O)cc1[C@@H](NC(C)=O)CC2 [Colchicine] |  |  |  |  | -0.631 |
